Reference: US20200369630A1, “HERBICIDALLY ACTIVE 3-PHENYL-5-TRIFLUOROMETHYLISOXAZOLINE-5-CARBOXAMIDES OF CYCLOPENTYLCARBOXYLIC ACIDS AND ESTERS” (Bayer Aktiengesellschaft, priority 2017, published 2020)

Experiments:
Experiment in all cases: Post-emergence herbicidal action
Format in all cases: in vivo
[1] = test system: AMARE: Amaranthus retroflexus; settings: rated visually after about 3 weeks
Description: (§1) [table] Seeds of monocotyledonous and dicotyledonous weeds and crop plants are placed in sandy loam in plastic or wood-fiber pots, covered with soil and cultivated in a greenhouse under controlled growth conditions. 2 to 3 weeks after sowing, the test plants are treated at the one-leaf stage. The compounds of the invention, formulated in the form of wettable powders (WP) or as emulsion concentrates (EC), are then sprayed onto the green parts of the plants as aqueous suspension or emulsion with addition of 0.5% additive at a water application rate of […] (converted). After the test plants had been kept in the greenhouse under optimum growth conditions for about 3 weeks, the activity of the preparations is rated visually in comparison to untreated controls. For example, 100% activity=the plants have died, 0% activity=like control plants.

STEME: Stellaria media = settings: Table C2, post-emergence, dosage 320 (0.32 kg of active substance per hectare), rated visually after about 3 weeks
Description: as §1

[2] = test system: POLCO: Polygonum convolvulus; settings: rated visually after about 3 weeks
Description: as §1

VERPE: Veronica persica = settings: rated visually after about 3 weeks
Description: as §1

[3] = test system: ECHCG: Echinochloa crus-galli; settings: Table C2, post-emergence, dosage 320 (0.32 kg of active substance per hectare), rated visually after about 3 weeks
Description: as §1

[4] = test system: ALOMY: Alopecurus myosuroides; settings: rated visually after about 3 weeks
Description: as §1

LOLRI: Lolium rigidum = settings: rated visually after about 3 weeks
Description: as §1

HORMU: Hordeum murinum = settings: rated visually after about 3 weeks
Description: as §1

AVEFA: Avena fatua = settings: Table C2, post-emergence, dosage 320 (0.32 kg of active substance per hectare), rated visually after about 3 weeks
Description: as §1

[5] = Table C2, post-emergence, dosage 320 (0.32 kg of active substance per hectare)
[6] = Table C4, post-emergence, 320 g/ha

SMILES	Herbicidal action against [%] AMARE [1, 5]	Herbicidal action against [%] STEME (STEME: Stellaria media)	Herbicidal action against [%] POLCO [2, 5]	Herbicidal action against [%] VERPE (VERPE: Veronica persica; [5])	Herbicidal action against [%] ECHCG [3]	Herbicidal action against [%] ALOMY [4, 5]	Herbicidal action against [%] LOLRI (LOLRI: Lolium rigidum; [5])	Herbicidal action against [%] HORMU (HORMU: Hordeum murinum; [5])	Herbicidal action against [%] AVEFA (AVEFA: Avena fatua)	Herbicidal action against [%] POLCO [2, 6]	Herbicidal action against [%] VERPE (VERPE: Veronica persica; [6])	Herbicidal action against [%] ALOMY [4, 6]	Herbicidal action against [%] LOLRI (LOLRI: Lolium rigidum; [6])	Herbicidal action against [%] HORMU (HORMU: Hordeum murinum; [6])	Herbicidal action against [%] AMARE [1, 6]
CC(C)(C)OC(=O)[C@@H]1CC[C@H](NC(=O)[C@@]2(C(F)(F)F)CC(c3cc(F)cc(F)c3)=NO2)C1 [Example I-95]	80%	90%	90%	80%	80%	90%	100%	90%	100%						
COC(=O)[C@H]1CC[C@H](NC(=O)[C@@]2(C(F)(F)F)CC(c3cc(F)cc(F)c3)=NO2)C1 [Example I-28]										80%	80%	80%	90%	90%	
CCOC(=O)C1CCC(NC(=O)C2(C(F)(F)F)CC(c3cccc(F)c3)=NO2)C1 (mixture of isomers) [Example I-339]	100%	100%	100%	90%	100%	100%	100%	100%	100%						
COC(=O)C1CCC(NC(=O)C2(C(F)(F)F)CC(c3cccc(F)c3)=NO2)C1 (mixture of isomers) [Example I-325]	80%	90%	80%	80%	90%	90%	100%	90%	100%						
O=C(OCCCl)C1CCC(NC(=O)C2(C(F)(F)F)CC(c3cccc(F)c3)=NO2)C1 (mixture of isomers) [Example I-409]	90%	100%	100%	90%	100%	100%	100%	100%	100%						
CC(C)(C)OC(=O)[C@H]1CC[C@@H](NC(=O)C2(C(F)(F)F)CC(c3cc(F)cc(F)c3)=NO2)C1 (relative stereo) [Example I-85, tert-butyl cis-3-({[3-(3,5-difluorophenyl)-5-(trifluoromethyl)-4,5-dihydro-1,2-oxazol-5-yl]carbonyl}amino)cyclopentanecarboxylate]											80%	90%	90%	90%	80%
COC(=O)C1CCC(NC(=O)C2(C(F)(F)F)CC(c3cc(F)c(F)c(F)c3)=NO2)C1 (mixture of isomers) [Example I-171]	80%	80%	80%	80%	80%	100%	100%	80%	90%						
CCOC(=O)C1CCC(NC(=O)C2(C(F)(F)F)CC(c3cc(F)c(F)c(F)c3)=NO2)C1 (mixture of isomers) [Example I-185]	80%	80%	90%	80%	80%	90%	90%	90%	100%						
CCOC(=O)C1CCC(NC(=O)C2(C(F)(F)F)CC(c3cc(C)cc(F)c3)=NO2)C1 (mixture of isomers) [Example I-543]	100%	80%	100%	90%	90%	90%	90%	80%	100%						
O=C(O)[C@@H]1CC[C@H](NC(=O)[C@@]2(C(F)(F)F)CC(c3cc(F)cc(F)c3)=NO2)C1 [Example I-11, (1R,3S)-3-({[(5R)-3-(3,5-difluorophenyl)-5-(trifluoromethyl)-4,5-dihydro-1,2-oxazol-5-yl]carbonyl}amino)cyclopentanecarboxylic acid]	80%	90%	80%	80%	80%	80%	90%	80%	90%						
O=C(O)C1CCC(NC(=O)C2(C(F)(F)F)CC(c3cccc(F)c3)=NO2)C1 (mixture of isomers) [Example I-311]	90%	100%	100%	90%	100%	100%	100%	100%	100%						
O=C(OCC(F)(F)F)[C@@H]1CC[C@H](NC(=O)[C@@]2(C(F)(F)F)CC(c3cc(F)cc(F)c3)=NO2)C1 [Example I-123]	80%	90%	90%	80%	80%	90%	100%	90%	90%						
COC(=O)[C@H]1CC[C@H](NC(=O)C2(C(F)(F)F)CC(c3cc(F)cc(F)c3)=NO2)C1 (stereo partly drawn) [Example I-20, methyl (1S,3S)-3-({[3-(3,5-difluorophenyl)-5-(trifluoromethyl)-4,5-dihydro-1,2-oxazol-5-yl]carbonyl}amino)cyclopentanecarboxylate]											90%	80%	90%	90%	80%
COC(=O)C1CCC(NC(=O)C2(C(F)(F)F)CC(c3cc(C)cc(Cl)c3)=NO2)C1 (mixture of isomers) [Example I-802]	90%	90%	100%	90%	80%	90%	90%	80%	100%						
Cc1cc(Cl)cc(C2=NOC(C(=O)NC3CCC(C(=O)OCC(F)(F)F)C3)(C(F)(F)F)C2)c1 (mixture of isomers) [Example I-844]										100%	90%	100%	90%	80%	
CCOC(=O)[C@H]1CC[C@H](NC(=O)[C@@]2(C(F)(F)F)CC(c3cc(F)cc(F)c3)=NO2)C1 [Example I-42]	80%	90%	80%	80%	80%	80%	90%	90%	90%						
O=C(OCCCl)[C@@H]1CC[C@H](NC(=O)[C@@]2(C(F)(F)F)CC(c3cc(F)cc(F)c3)=NO2)C1 [Example I-109, 2-chloroethyl-(1R,3S)-3-({[(5R)-3-(3,5-difluorophenyl)-5-(trifluoromethyl)-4,5-dihydro-1,2-oxazol-5-yl]carbonyl}amino)cyclopentanecarboxylate]	80%	90%	80%	80%	90%	90%	80%	90%	90%						
Cc1cc(Cl)cc(C2=NOC(C(=O)NC3CCC(C(=O)OCCCl)C3)(C(F)(F)F)C2)c1 (mixture of isomers) [Example I-838]										100%	80%	100%	100%	90%	80%
